The values that follow come from patent US9796720B2, “Imidazole-derived modulators of the glucocorticoid receptor” (BRISTOL-MYERS SQUIBB COMPANY, priority 2013, dated 2017).

Assay [1] concerns the target human full-length glucocorticoid receptor (Homo sapiens (Human), UniProt P04150). Description: Glucocorticoid Receptor Binding Assay (II), fluorescence polarization competitor assay. Conditions: recombinant human full-length GR cell lysate, Fluormone GS1; read-out: GR (Ki, nM) (measured in GR binding Assay II). The method, then:
Glucocorticoid Receptor Binding Assay (II)
In order to measure the binding of compounds on the glucocorticoid receptor a commercially available kit was used (Glucocorticoid receptor competitor assay kit, PanVera Co., Madison, Wis., P2816). Briefly, a cell lysate containing recombinantly expressed human full-length glucocorticoid receptor was mixed with a fluorescently labeled glucocorticoid (1 nM Fluormone GS1) in the presence or absence of test compound. After one hour at room temperature, the fluorescence polarization (FP) of the samples were measured.
(In general: In fluorescence polarisation assays a small probe gives low polarisation when free and higher when bound to something large.)

The test system of a further assay is AP-1. Kind of assay: Cellular transrepressional assay (AP-1 luciferase reporter in A549 cells, PMA-activated). The class given is cell-based. Conditions: for EC50: read-out: AP-1 (EC50, nM) (measured in cellular transrepression assay); for Emax: read-out: AP-1 Max % inhibition (measured in cellular transrepression assay). As to the method:
Cellular Transrepressional Assay
To measure the ability of test molecules to inhibit AP-1 induced transcriptional activity we utilized an A549 cell which was stably transfected with a plasmid containing 7×AP-1 DNA binding sites (pAP-1-Luc plasmid, Stratagene Co. La Jolla, Calif.) followed by the gene for luciferase. Cells were activated with 10 ng/ml of phorbol myristic acid (PMA) plus or minus test molecules for 7 hours. After 7 hours a luciferase reagent was added to measure luciferase enzymatic activity in the cell. After a 10 minute incubation of luciferase reagent with cells, luminescence was measured in a TOPCOUNT® luminescence counter. Repression of AP-1 activity was calculated as the percentage decrease in the signal induced by PMA alone. Test molecules were analyzed in the concentration range from 0.1 nM to 40 μM. EC50s were determined by using standard curve fitting methods such as Excel fit (Microsoft Co.). An EC50 is the test molecule concentration at which there is a 50% repression of the maximal inhibition of transcription, i.e., a 50% reduction of AP-1 activity.
A general note: In a reporter assay the amount or activity of a reporter protein is the signal.

[2] abbreviates: A549 cells, 7xAP-1 luciferase, PMA 10 ng/ml, 7 hours.

Read-outs that look alike come from different tables or passages of the source.

human full-length glucocorticoid receptor, sequence (P04150 whole entry): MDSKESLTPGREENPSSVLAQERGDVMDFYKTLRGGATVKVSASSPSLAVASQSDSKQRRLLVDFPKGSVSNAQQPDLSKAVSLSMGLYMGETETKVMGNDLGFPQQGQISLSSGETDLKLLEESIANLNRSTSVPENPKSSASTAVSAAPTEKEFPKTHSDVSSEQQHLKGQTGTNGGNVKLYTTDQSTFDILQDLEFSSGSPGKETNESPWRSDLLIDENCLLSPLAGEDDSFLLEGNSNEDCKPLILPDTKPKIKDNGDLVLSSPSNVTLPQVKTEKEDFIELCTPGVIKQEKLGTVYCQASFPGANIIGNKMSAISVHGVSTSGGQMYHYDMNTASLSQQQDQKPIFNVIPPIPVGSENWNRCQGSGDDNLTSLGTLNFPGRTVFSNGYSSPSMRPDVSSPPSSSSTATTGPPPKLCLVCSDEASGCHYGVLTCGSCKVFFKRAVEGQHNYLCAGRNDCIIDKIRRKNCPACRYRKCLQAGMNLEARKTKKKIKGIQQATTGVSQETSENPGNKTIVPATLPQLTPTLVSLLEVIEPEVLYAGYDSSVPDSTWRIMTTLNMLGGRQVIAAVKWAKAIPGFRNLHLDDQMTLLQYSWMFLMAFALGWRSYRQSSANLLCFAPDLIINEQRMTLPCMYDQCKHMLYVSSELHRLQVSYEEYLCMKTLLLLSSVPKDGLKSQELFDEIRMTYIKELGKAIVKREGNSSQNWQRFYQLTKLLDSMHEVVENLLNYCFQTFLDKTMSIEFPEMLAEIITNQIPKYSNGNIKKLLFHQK

Take `CC(C)(c1nc2nccnc2[nH]1)[C@@H]1c2ccc(-c3ccc(C(=O)N4CCOCC4)cc3)nc2Oc2c(F)cccc21` [Example 1, (S)-(4-(5-(2-(1H-Imidazo[4,5-b]pyrazin-2-yl)propan-2-yl)-9-fluoro-5H-chromeno[2,3-b]pyridin-2-yl)phenyl)(morpholino)methanone]: the Ki – broadly, the dissociation constant of the complex between target and ligand, obtained from inhibition or displacement – in assay [1] was found to be 57 nM. In addition, in the assay on AP-1 (setting [2]), the EC50 – broadly, the concentration that produces a half-maximal response – was determined as 8.33 nM and the Emax turned out to be 65.2%.

As for `CC(=O)c1ccc(-c2ccc3c(n2)Oc2c(F)cccc2[C@@H]3C(C)(C)c2nc3nccnc3[nH]2)cc1` [Example 2, (S)-1-(4-(5-(2-(1H-Imidazo[4,5-b]pyrazin-2-yl)propan-2-yl)-9-fluoro-5H-chromeno[2,3-b]pyridin-2-yl)phenyl)ethanone], the Ki in assay [1] was found to be 3.28 nM. Besides, in the assay on AP-1 (7 h), the EC50 came out at 4.39 nM and the Emax is 59.7%.

`CC(C)(O)c1ccc(-c2ccc3c(n2)Oc2c(F)cccc2[C@@H]3C(C)(C)c2nc3nccnc3[nH]2)cc1` [Example 3, (S)-2-(4-(5-(2-(1H-Imidazo[4,5-b]pyrazin-2-yl)propan-2-yl)-9-fluoro-5H-chromeno[2,3-b]pyridin-2-yl)phenyl)propan-2-ol]: the Ki in assay [1] is 2.35 nM. Besides, in the assay with AP-1 (setting [2]), the EC50 came to 3.85 nM and the Emax was 65%.

On to `CN(C)C(=O)c1ccc(-c2ccc3c(n2)Oc2c(F)cccc2[C@@H]3C(C)(C)c2nc3nccnc3[nH]2)cc1` [Example 4, (S)-4-(5-(2-(1H-Imidazo[4,5-b]pyrazin-2-yl)propan-2-yl)-9-fluoro-5H-chromeno[2,3-b]pyridin-2-yl)-N,N-dimethylbenzamide], for which the Ki in assay [1] stood at 2.63 nM. Further, in the assay with AP-1 (setting [2]), the EC50 is 4.94 nM and the Emax stood at 73.1%.

For `CC(C)(c1nc2nccnc2[nH]1)[C@@H]1c2ccc(-c3ccc(S(C)(=O)=O)cc3)nc2Oc2c(F)cccc21` [Example 5, (S)-5-(2-(1H-Imidazo[4,5-b]pyrazin-2-yl)propan-2-yl)-9-fluoro-2-(4-(methylsulfonyl)phenyl)-5H-chromeno[2,3-b]pyridine], in assay [1], the Ki was determined as 2.89 nM. Moreover, in the assay on AP-1 (7 h), the EC50 was 29.5 nM and the Emax was found to be 55.8%.

With `CCS(=O)(=O)c1ccc(-c2ccc3c(n2)Oc2c(F)cccc2[C@@H]3C(C)(C)c2nc3nccnc3[nH]2)cc1` [Example 6, (S)-5-(2-(1H-Imidazo[4,5-b]pyrazin-2-yl)propan-2-yl)-2-(4-(ethylsulfonyl)phenyl)-9-fluoro-5H-chromeno[2,3-b]pyridine], in assay [1], the Ki was determined as 2.34 nM. Also, in the assay on AP-1 (setting [2]), the EC50 came to 15.5 nM and the Emax was 58.2%.

Turning to `CC(C)S(=O)(=O)c1ccc(-c2ccc3c(n2)Oc2c(F)cccc2[C@@H]3C(C)(C)c2nc3nccnc3[nH]2)cc1` [Example 7, (S)-5-(2-(1H-Imidazo[4,5-b]pyrazin-2-yl)propan-2-yl)-9-fluoro-2-(4-(isopropylsulfonyl)phenyl)-5H-chromeno[2,3-b]pyridine], the Ki in assay [1] amounted to 1.4 nM. For the same compound, in the assay on AP-1 (7 h), the EC50 is 12.2 nM and the Emax was 54.2%.

In the case of `CC(C)Oc1ccc(-c2ccc3c(n2)Oc2c(F)cccc2[C@@H]3C(C)(C)c2nc3nccnc3[nH]2)cc1` [Example 8, (S)-5-(2-(1H-Imidazo[4,5-b]pyrazin-2-yl)propan-2-yl)-9-fluoro-2-(4-isopropoxyphenyl)-5H-chromeno[2,3-b]pyridine], the Ki in assay [1] is 0.76 nM. Moreover, in the assay with AP-1 (setting [2]), the EC50 was 9.82 nM and the Emax amounted to 69.8%.

In the case of `CC(C)Oc1ccc(-c2ccc3c(n2)Oc2c(F)cccc2[C@@H]3C(C)(C)c2nc3nccnc3[nH]2)cc1Cl` [Example 9, (S)-5-(2-(1H-Imidazo[4,5-b]pyrazin-2-yl)propan-2-yl)-2-(3-chloro-4-isopropoxyphenyl)-9-fluoro-5H-chromeno[2,3-b]pyridine], the Ki in assay [1] was 2.1 nM. Also, in the assay on AP-1 (setting [2]), the EC50 amounted to 291 nM and the Emax came to 43.7%.

On to `CC(C)Oc1ccc(-c2ccc3c(n2)Oc2c(F)cccc2[C@@H]3C(C)(C)c2nc3nccnc3[nH]2)cc1F` [Example 10, (S)-5-(2-(1H-Imidazo[4,5-b]pyrazin-2-yl)propan-2-yl)-9-fluoro-2-(3-fluoro-4-isopropoxyphenyl)-5H-chromeno[2,3-b]pyridine], for which the Ki in assay [1] came out at 0.67 nM. Moreover, in the assay on AP-1 (setting [2]), the EC50 stood at 20.1 nM and the Emax stood at 70.2%.

As to `CC(C)(C)Oc1ccc(-c2ccc3c(n2)Oc2c(F)cccc2[C@@H]3C(C)(C)c2nc3nccnc3[nH]2)cc1` [Example 11, (S)-5-(2-(1H-Imidazo[4,5-b]pyrazin-2-yl)propan-2-yl)-2-(4-tert-butoxyphenyl)-9-fluoro-5H-chromeno[2,3-b]pyridine], in assay [1], the Ki turned out to be 0.82 nM. For the same compound, in the assay on AP-1 (7 h), the EC50 amounted to 37.5 nM and the Emax worked out at 76.3%.

On to `CCOc1ccc(-c2ccc3c(n2)Oc2c(F)cccc2[C@@H]3C(C)(C)c2nc3nccnc3[nH]2)cc1` [Example 12, (S)-5-(2-(1H-Imidazo[4,5-b]pyrazin-2-yl)propan-2-yl)-2-(4-ethoxyphenyl)-9-fluoro-5H-chromeno[2,3-b]pyridine], for which the Ki in assay [1] turned out to be 0.66 nM. Further, in the assay with AP-1 (setting [2]), the EC50 was found to be 14.4 nM and the Emax is 62.6%.

For `CC(C)(c1nc2nccnc2[nH]1)[C@@H]1c2ccc(-c3ccc(OC(F)(F)F)cc3)nc2Oc2c(F)cccc21` [Example 13, (S)-5-(2-(1H-Imidazo[4,5-b]pyrazin-2-yl)propan-2-yl)-9-fluoro-2-(4-(trifluoromethoxy)phenyl)-5H-chromeno[2,3-b]pyridine], the Ki in assay [1] amounted to 2.36 nM. In addition, in the assay with AP-1 (setting [2]), the EC50 worked out at 55.1 nM and the Emax turned out to be 55.5%.

On to `CC(C)(c1nc2ccccc2[nH]1)[C@@H]1c2ccc(-c3ccc(C(=O)N4CCOCC4)cc3)nc2Oc2c(F)cccc21` [Example 14, (S)-(4-(5-(2-(1H-Benzo[d]imidazol-2-yl)propan-2-yl)-9-fluoro-5H-chromeno[2,3-b]pyridin-2-yl)phenyl)(morpholino)methanone], for which the Ki in assay [1] worked out at 16.1 nM. In the assay with AP-1 (setting [2]), the EC50 was found to be 284 nM and the Emax was 31.6%.

On to `CC(C)(c1nc2cccnc2[nH]1)[C@@H]1c2ccc(-c3ccc(C(=O)N4CCOCC4)cc3)nc2Oc2c(F)cccc21` [Example 15, (S)-(4-(5-(2-(3H-Imidazo[4,5-b]pyridin-2-yl)propan-2-yl)-9-fluoro-5H-chromeno[2,3-b]pyridin-2-yl)phenyl)(morpholino)methanone], for which the Ki in assay [1] is 121 nM. In the assay with AP-1 (setting [2]), the EC50 amounted to 864 nM and the Emax is 29.3%.

Regarding `CC(C)(c1nc2cncnc2[nH]1)[C@@H]1c2ccc(-c3ccc(C(=O)N4CCOCC4)cc3)nc2Oc2c(F)cccc21` [Example 16, (S)-(4-(5-(2-(9H-Purin-8-yl)propan-2-yl)-9-fluoro-5H-chromeno[2,3-b]pyridin-2-yl)phenyl)(morpholino)methanone], the Ki in assay [1] came out at 12.4 nM. In the assay on AP-1 (setting [2]), the EC50 came to 169 nM and the Emax amounted to 52.2%.

As to `CC(C)(c1nc2cncnc2[nH]1)[C@@H]1c2ccc(-c3ccc(S(C)(=O)=O)cc3)nc2Oc2c(F)cccc21` [Example 17, (S)-5-(2-(9H-Purin-8-yl)propan-2-yl)-9-fluoro-2-(4-(methylsulfonyl)phenyl)-5H-chromeno[2,3-b]pyridine], the Ki in assay [1] worked out at 65.8 nM. In the assay with AP-1 (setting [2]), the EC50 came to 2500 nM and the Emax was determined as 27.3%.
